Reference: ChEMBL document CHEMBL5107949, “Design, synthesis, and antibacterial activity of N-(trifluoromethyl)phenyl substituted pyrazole derivatives” (RSC Med Chem, 2021)
In brackets after ≈: the same amount, converted by molar mass. Activity calls are given as the source filed them. The rule behind the calls is not given here.

How the values were obtained:
[1] = tested on: Enterococcus faecalis; assay: Antibacterial activity against Enterococcus faecalis clinical isolate 1088051 assessed as inhibition of bacterial growth by CLSI protocol based broth microdilution method; format: functional
[2] = tested on: Enterococcus faecalis; assay: Antibacterial activity against Enterococcus faecalis clinical isolate 1091563 assessed as inhibition of bacterial growth by CLSI protocol based broth microdilution method; format: functional
[3] = tested on: Enterococcus faecalis; assay: Antibacterial activity against Enterococcus faecalis clinical isolate 1091720 assessed as inhibition of bacterial growth by CLSI protocol based broth microdilution method; format: functional
[4] = tested on: Enterococcus faecalis; assay: Antibacterial activity against Enterococcus faecalis clinical isolate 1094112 assessed as inhibition of bacterial growth by CLSI protocol based broth microdilution method; format: functional
[5] = tested on: Enterococcus faecalis; assay: Antibacterial activity against Enterococcus faecalis clinical isolate 1100440 assessed as inhibition of bacterial growth by CLSI protocol based broth microdilution method; format: functional
[6] = tested on: Enterococcus faecium; assay: Antibacterial activity against Enterococcus faecium clinical isolate 1088168 assessed as inhibition of bacterial growth by CLSI protocol based broth microdilution method; format: functional
[7] = tested on: Enterococcus faecium; assay: Antibacterial activity against Enterococcus faecium clinical isolate 1088228 assessed as inhibition of bacterial growth by CLSI protocol based broth microdilution method; format: functional
[8] = tested on: Enterococcus faecium; assay: Antibacterial activity against Enterococcus faecium clinical isolate 1088925 assessed as inhibition of bacterial growth by CLSI protocol based broth microdilution method; format: functional
[9] = tested on: Enterococcus faecium; assay: Antibacterial activity against Enterococcus faecium clinical isolate 1089544 assessed as inhibition of bacterial growth by CLSI protocol based broth microdilution method; format: functional
[10] = tested on: Enterococcus faecium; assay: Antibacterial activity against Enterococcus faecium clinical isolate 1091282 assessed as inhibition of bacterial growth by CLSI protocol based broth microdilution method; format: functional
[11] = tested on: Staphylococcus aureus; assay: Antibacterial activity against Staphylococcus aureus clinical isolate 1088060 assessed as inhibition of bacterial growth by CLSI protocol based broth microdilution method; format: functional
[12] = tested on: Staphylococcus aureus; assay: Antibacterial activity against Staphylococcus aureus clinical isolate 1088105 assessed as inhibition of bacterial growth by CLSI protocol based broth microdilution method; format: functional
[13] = tested on: Staphylococcus aureus; assay: Antibacterial activity against Staphylococcus aureus clinical isolate 1088626 assessed as inhibition of bacterial growth by CLSI protocol based broth microdilution method; format: functional
[14] = tested on: Staphylococcus aureus; assay: Antibacterial activity against Staphylococcus aureus clinical isolate 1088064 assessed as inhibition of bacterial growth by CLSI protocol based broth microdilution method; format: functional
[15] = tested on: Staphylococcus aureus; assay: Antibacterial activity against Staphylococcus aureus clinical isolate 1088610 assessed as inhibition of bacterial growth by CLSI protocol based broth microdilution method; format: functional
[16] = tested on: Staphylococcus aureus; assay: Antibacterial activity against Staphylococcus aureus clinical isolate 1088888 assessed as inhibition of bacterial growth by CLSI protocol based broth microdilution method; format: functional
[17] = tested on: Staphylococcus aureus; assay: Antibacterial activity against Staphylococcus aureus clinical isolate 1089106 assessed as inhibition of bacterial growth by CLSI protocol based broth microdilution method; format: functional
[18] = tested on: Staphylococcus aureus; assay: Antibacterial activity against antibiotic susceptible Staphylococcus aureus ATCC 25923 assessed as inhibition of bacterial growth by CLSI protocol based broth microdilution method; format: functional
[19] = tested on: Staphylococcus aureus; assay: Antibacterial activity against antibiotic resistant Staphylococcus aureus ATCC 33591 assessed as inhibition of bacterial growth by CLSI protocol based broth microdilution method; format: functional
[20] = tested on: Staphylococcus aureus; assay: Antibacterial activity against antibiotic resistant Staphylococcus aureus ATCC 33592 assessed as inhibition of bacterial growth by CLSI protocol based broth microdilution method; format: functional
[21] = tested on: Staphylococcus aureus; assay: Antibacterial activity against antibiotic resistant Staphylococcus aureus BAA-2312 assessed as inhibition of bacterial growth by CLSI protocol based broth microdilution method; format: functional
[22] = tested on: Staphylococcus aureus; assay: Antibacterial activity against antibiotic resistant Staphylococcus aureus ATCC 700699 assessed as inhibition of bacterial growth by CLSI protocol based broth microdilution method; format: functional
[23] = tested on: Staphylococcus epidermidis; assay: Antibacterial activity against antibiotic resistant Staphylococcus epidermidis ATCC 700296 assessed as inhibition of bacterial growth by CLSI protocol based broth microdilution method; format: functional
[24] = tested on: Bacillus subtilis; assay: Antibacterial activity against antibiotic resistant Bacillus subtilis ATCC 6623 assessed as inhibition of bacterial growth by CLSI protocol based broth microdilution method; format: functional
[25] = tested on: Enterococcus faecalis; assay: Antibacterial activity against antibiotic susceptible Enterococcus faecalis ATCC 29212 assessed as inhibition of bacterial growth by CLSI protocol based broth microdilution method; format: functional
[26] = tested on: Enterococcus faecium; assay: Antibacterial activity against vancomycin resistant Enterococcus faecium ATCC 700221 assessed as inhibition of bacterial growth by CLSI protocol based broth microdilution method; format: functional
[27] = Cytotoxicity against human HEK293 cells reduction in cell viability incubated for 24 hrs by resazurin cell viability assay; format: toxicity, cell-based
[28] = tested on: Enterococcus faecalis; assay: Inhibition of biofilm formation in Enterococcus faecalis ATCC 29212 at 12.5 ug/ml incubated for 24 hrs by Calgary biofilm device assay; format: functional
[29] = tested on: Enterococcus faecalis; assay: Anti-biofilm activity against Enterococcus faecalis ATCC 29212 assessed as biofilm eradication at 3.125 to 12.5 ug/ml incubated for 24 hrs by Calgary biofilm device assay; format: functional, organism-based; conditions: dose 3.125-12.5 µg/ml
[30] = tested on: Staphylococcus aureus; assay: Inhibition of biofilm formation in Staphylococcus aureus ATCC 25923 at 3.125 to 12.5 ug/ml incubated for 24 hrs by Calgary biofilm device assay; format: functional, organism-based; conditions: dose 3.125-12.5 µg/ml, DDE = dose-dependent effect
[31] = tested on: Enterococcus faecalis; assay: Anti-biofilm activity against Enterococcus faecalis ATCC 29212 assessed as eradication of biofilm formation incubated for 24 hrs by Calgary biofilm device assay; format: functional
[32] = tested on: Staphylococcus aureus; assay: Anti-biofilm activity against Staphylococcus aureus ATCC 25923 assessed as eradication of biofilm formation incubated for 24 hrs by Calgary biofilm device assay; format: functional
[33] = tested on: Staphylococcus aureus; assay: Bactericidal activity against Staphylococcus aureus ATCC 700699 assessed as bacteria elimination at 4 times MIC and measured after 6 hrs by time-kill assay; format: functional
[34] = tested on: Staphylococcus aureus; assay: Bactericidal activity against Staphylococcus aureus ATCC 700699 persisters assessed as log reduction in colony forming unit at 16 times MIC after 4 hrs by colony counting method; format: functional
[35] = tested on: Staphylococcus aureus; assay: Bactericidal activity against Staphylococcus aureus ATCC 700699 persisters assessed as log reduction in colony forming unit at 2 to 32 times MIC measured for 4 hrs by time kill assay; format: functional, organism-based; conditions: DDE = dose-dependent effect
[36] = tested on: Staphylococcus aureus; assay: Bactericidal activity against Staphylococcus aureus ATCC 700699 persisters assessed as log reduction in colony forming unit at 16 times MIC measured for 4 hrs by time kill assay; format: functional
[37] = tested on: Staphylococcus aureus; assay: Bactericidal activity against Staphylococcus aureus ATCC 700699 persisters assessed as log reduction in colony forming unit at 32 times MIC measured for 4 hrs by time kill assay; format: functional
[38] = tested on: Enterococcus faecalis; assay: Anti-biofilm activity against Enterococcus faecalis ATCC 29212 assessed as minimum bactericidal concentration incubated for 24 hrs by Calgary biofilm device assay; conditions: ATCC 29212, 24 h
[39] = tested on: Staphylococcus aureus; assay: Antibacterial activity against Staphylococcus aureus ATCC 25923 assessed as minimum bactericidal concentration incubated for 24 hrs by Calgary biofilm device assay; conditions: ATCC 25923, 24 h
[40] = tested on: Staphylococcus aureus; assay: Inhibition of protein synthesis in Staphylococcus aureus ATCC 29213 at 8 times MIC preincubated for 30 mins followed by [3H]-leucine and measured after 40 mins by [3H]-leucine incorporation based beta scintillation counter analysis; format: functional; conditions: time 70.0 min
[41] = tested on: HEK293; assay: Cytotoxicity against human HEK293 cells reduction in cell viability at 74 ug/ml incubated for 24 hrs by resazurin cell viability assay; format: toxicity, cell-based; conditions: hek293, 24 h, at 74 µg/mL

For `Cc1onc(-c2ccccc2)c1C(=O)N[C@@H]1C(=O)N2[C@@H]1SC(C)(C)[C@@H]2C(=O)O` [OXACILLIN], the MIC [1] was 64 µg/mL (≈ 159 µM), the MIC [2] was 64 µg/mL (≈ 159 µM) and the MIC [3] was 64 µg/mL (≈ 159 µM). For the same compound, the MIC [4] was > 64 µg/mL, the MIC [5] was > 64 µg/mL and the MIC [6] was > 64 µg/mL. The MIC [7] was > 64 µg/mL, the MIC [8] was > 64 µg/mL and the MIC [9] was > 64 µg/mL. The MIC [10] was > 64 µg/mL, the MIC [11] was 0.5 µg/mL (≈ 1.25 µM) and the MIC [12] was 0.25 µg/mL (≈ 0.623 µM). It also gave an MIC [13] of 0.25 µg/mL (≈ 0.623 µM), an MIC [14] of 64 µg/mL (≈ 159 µM) and an MIC [15] of 64 µg/mL (≈ 159 µM). For the same compound, the MIC [16] was > 64 µg/mL and the MIC [17] was 64 µg/mL (≈ 159 µM).

`O=C(O)c1ccc(-c2nn(-c3ccc(C(F)(F)F)cc3)cc2CNc2ccc(Oc3ccccc3)cc2)cc1` gave an MIC [18] of 1.56 µg/mL (≈ 2.95 µM), an MIC [19] of 3.12 µg/mL (≈ 5.89 µM) and an MIC [20] of 1.56 µg/mL (≈ 2.95 µM). The MIC [21] was 3.12 µg/mL (≈ 5.89 µM), the MIC [22] was 1.56 µg/mL (≈ 2.95 µM) and the MIC [23] was 3.12 µg/mL (≈ 5.89 µM). It also gave an MIC [24] of 1.56 µg/mL (≈ 2.95 µM), an MIC [25] of 3.12 µg/mL (≈ 5.89 µM) and an MIC [26] of 1.56 µg/mL (≈ 2.95 µM). For the same compound, the IC50 at 24 h [27] was 23.5 µg/mL (≈ 44.4 µM), the inhibition at 12.5 µg/mL [28] was 100% and the Activity [29] was “Active”. For the same compound, the inhibition [30] was “Dde”, the MBEC [31] was 12.5 µg/mL and the MBEC [32] was 6.25 µg/mL. For the same compound, the Activity [33] was >99.9%, the “log(activity)” value [34] was >2 and the Activity [35] was “Dde”. The “log(activity)” value [36] was 3, the “log(activity)” value [37] was 3 and the MBC [38] was 12.5 µg/mL (≈ 23.6 µM). For the same compound, the MBC [39] was 3.12 µg/mL (≈ 5.89 µM).

In the case of `CC(=O)NC[C@H]1CN(c2ccc(N3CCOCC3)c(F)c2)C(=O)O1`, the inhibition [40] is reported as 70.7%.

For `CC/C(=C(\c1ccccc1)c1ccc(OCCN(C)C)cc1)c1ccccc1` [TAMOXIFEN], the Activity [41] was 100%.

Work on `Cc1ccc(NCc2cn(-c3ccc(C(F)(F)F)cc3)nc2-c2ccc(C(=O)O)cc2)cc1Cl` yielded an MIC [18] of 3.12 µg/mL (≈ 6.42 µM), an MIC [19] of 6.25 µg/mL (≈ 12.9 µM) and an MIC [20] of 3.12 µg/mL (≈ 6.42 µM). For the same compound, the MIC [21] was 3.12 µg/mL (≈ 6.42 µM), the MIC [22] was 1.56 µg/mL (≈ 3.21 µM) and the MIC [23] was 6.25 µg/mL (≈ 12.9 µM). For the same compound, the MIC [24] was 1.56 µg/mL (≈ 3.21 µM), the MIC [25] was 6.25 µg/mL (≈ 12.9 µM) and the MIC [26] was 3.12 µg/mL (≈ 6.42 µM). For the same compound, the IC50 at 24 h [27] was > 12 µg/mL.

Compound `O=C(O)c1ccc(-c2nn(-c3ccc(C(F)(F)F)cc3)cc2CNc2ccc(Cl)c(Cl)c2)cc1` has an MIC [18] of 1.56 µg/mL (≈ 3.08 µM), an MIC [19] of 1.56 µg/mL (≈ 3.08 µM) and an MIC [20] of 1.56 µg/mL (≈ 3.08 µM). For the same compound, the MIC [21] was 1.56 µg/mL (≈ 3.08 µM), the MIC [22] was 0.78 µg/mL (≈ 1.54 µM) and the MIC [23] was 3.12 µg/mL (≈ 6.16 µM). The MIC [24] was 0.39 µg/mL (≈ 0.77 µM), the MIC [25] was 3.12 µg/mL (≈ 6.16 µM) and the MIC [26] was 1.56 µg/mL (≈ 3.08 µM). The IC50 at 24 h [27] was > 12 µg/mL.

For `C[C@@H](O)[C@H]1C(=O)N2C(C(=O)O)=C(S[C@@H]3CN[C@H](C(=O)N(C)C)C3)[C@H](C)[C@H]12` [MEROPENEM], the MIC [1] was 2 µg/mL (≈ 5.22 µM), the MIC [2] was 2 µg/mL (≈ 5.22 µM) and the MIC [3] was 8 µg/mL (≈ 20.9 µM). For the same compound, the MIC [4] was 8 µg/mL (≈ 20.9 µM), the MIC [5] was 4 µg/mL (≈ 10.4 µM) and the MIC [6] was > 128 µg/mL. For the same compound, the MIC [7] was > 128 µg/mL, the MIC [8] was > 128 µg/mL and the MIC [9] was > 128 µg/mL. For the same compound, the MIC [10] was > 128 µg/mL, the MIC [11] was 0.06 µg/mL (≈ 0.156 µM) and the MIC [12] was 0.12 µg/mL (≈ 0.313 µM). For the same compound, the MIC [13] was 0.06 µg/mL (≈ 0.156 µM), the MIC [14] was 4 µg/mL (≈ 10.4 µM) and the MIC [15] was 4 µg/mL (≈ 10.4 µM). It also gave an MIC [16] of 8 µg/mL (≈ 20.9 µM) and an MIC [17] of 2 µg/mL (≈ 5.22 µM).
